Test results reported in ChEMBL document CHEMBL1201862, “PubChem BioAssay data set” (2004).
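Growth conditions: 96-well plates. Treatment: test compound, 48 hours, 5 concentrations. Analysis: linear interpolation between bracketing concentrations; unreached endpoints set to highest concentration. At the GI50, growth is halved.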 Active and inactive are the calls of the source. Rule as the data show it: active = GI50 up to about 1.1 µM and inactive = higher.

Legend:
Test in all cases: NCI-60 cell line screen, 48 h
[1] = test system: A549
[2] = test system: BT-549
[3] = test system: EKVX
[4] = test system: MDA-MB-435
[5] = test system: MOLT-4
[6] = test system: Malme-3M
[7] = test system: NCI-H23
[8] = test system: NCI-H522
[9] = test system: OVCAR-3
[10] = test system: OVCAR-5
[11] = test system: PC-3
[12] = test system: RXF 393
[13] = test system: SK-MEL-28
[14] = test system: SK-OV-3
[15] = test system: SW-620
[16] = test system: TK-10
[17] = test system: UACC-257
[18] = test system: A498
[19] = test system: HOP-92
[20] = test system: LOX IMVI

Measured: GI50

N=c1sc(N2CCOCC2)nn1CC(=O)c1ccccc1
inactive: [1] > 100 µM | [2] > 100 µM | [3] > 100 µM | [4] > 100 µM | [5] > 100 µM | [6] > 100 µM | [7] > 100 µM | [8] > 100 µM | [9] 66.5 µM | [10] > 100 µM | [11] 96.8 µM | [12] > 100 µM | [13] > 100 µM | [14] > 100 µM | [15] > 100 µM | [16] > 100 µM | [17] > 100 µM

Cn1c2c(c3ccccc31)CCN1OCC=C[C@@H](C(=O)O)[C@@H]21
inactive: [18] > 100 µM | [1] > 100 µM | [3] > 100 µM | [19] 17.9 µM | [20] > 100 µM | [4] > 100 µM | [6] > 100 µM | [8] > 100 µM | [9] > 100 µM | [10] > 100 µM | [11] > 100 µM | [12] > 100 µM | [13] > 100 µM | [14] > 100 µM | [15] > 100 µM | [16] > 100 µM | [17] > 100 µM

CN(C)CCNc1nc2c(no[n+]2[O-])c2ccccc12.[O-][Cl+3]([O-])([O-])O
inactive: [18] 13.7 µM | [1] 16.7 µM | [3] 26.1 µM | [19] 22.1 µM | [20] 16.8 µM | [4] 18 µM | [5] 32.4 µM | [6] 22.5 µM | [7] 34.4 µM | [8] 24.4 µM | [9] 30.8 µM | [10] 38 µM | [11] 28 µM | [12] 17.5 µM | [13] 18.5 µM | [14] 32.1 µM | [15] 11.1 µM | [16] 24.9 µM | [17] 16.8 µM

COC(=O)C1CCCN1C(=O)C(Cc1cn(S(=O)(=O)c2ccc(C)cc2)cn1)NC(=O)OC(C)(C)C (stereo not given)
inactive: [18] > 100 µM | [1] > 100 µM | [2] > 100 µM | [3] > 100 µM | [19] > 100 µM | [5] > 100 µM | [6] > 100 µM | [7] > 100 µM | [10] > 100 µM | [11] > 100 µM | [12] > 100 µM | [13] > 100 µM | [15] > 100 µM | [16] > 100 µM | [17] > 100 µM

Cc1ccc(S(=O)(=O)N2c3ccccc3[C@H]3CCC=C[C@H]32)cc1
inactive: [18] 6.4 µM | [1] 6.75 µM | [2] 8.91 µM | [3] 12.1 µM | [19] 3.16 µM | [20] 10.4 µM | [5] 4.81 µM | [6] 4.07 µM | [7] 8.28 µM | [8] 1.29 µM | [9] 4 µM | [10] 41.3 µM | [11] 11.2 µM | [12] 3.61 µM | [13] 10.9 µM | [14] 2.54 µM | [15] 4.51 µM | [16] 13.7 µM | [17] 10.1 µM

C[n+]1c2ccccc2c(C(=O)Nc2ccc(S(=O)(=O)Nc3ncccn3)cc2)c2ccccc21
inactive: [1] > 100 µM | [2] 45.1 µM | [3] 80.7 µM | [20] 79.3 µM | [4] 42.3 µM | [5] 25.8 µM | [6] > 100 µM | [7] > 100 µM | [9] > 100 µM | [10] > 100 µM | [11] 57 µM | [13] > 100 µM | [14] > 100 µM | [15] > 100 µM | [16] > 100 µM | [17] > 100 µM

Oc1ccc2ccccc2c1CCc1c(O)ccc2ccccc12
inactive: [18] 18.5 µM | [1] 11.7 µM | [3] 13.4 µM | [19] 11 µM | [20] 14.3 µM | [4] 12.8 µM | [6] 13.4 µM | [7] 11.8 µM | [9] 4.42 µM | [10] 14.1 µM | [11] 13.9 µM | [12] 11.7 µM | [13] 10.6 µM | [14] 15.8 µM | [15] 14.2 µM | [16] 18.6 µM | [17] 13.9 µM

CCCC1C(C#N)(C#N)C(C#N)=C(N)C1(C)C(C)=O (stereo not given)
inactive: [18] > 100 µM | [1] > 100 µM | [3] > 100 µM | [19] 36.3 µM | [20] > 100 µM | [4] > 100 µM | [5] > 100 µM | [6] 77.1 µM | [7] > 100 µM | [8] 52.8 µM | [10] > 100 µM | [11] > 100 µM | [12] 71 µM | [14] > 100 µM | [15] > 100 µM | [16] > 100 µM | [17] 86.9 µM

CC(=O)N1C(NN(C)C)CCN1c1ccccc1 (stereo not given)
inactive: [1] > 10 µM | [3] > 10 µM | [19] > 10 µM | [4] > 10 µM | [5] > 10 µM | [6] > 10 µM | [7] > 10 µM | [11] > 10 µM | [12] > 10 µM | [13] > 10 µM | [14] > 10 µM | [15] > 10 µM | [16] > 10 µM | [17] > 10 µM

COC(=O)/C=C(\C)CC(O)/C=C(\C)CCC=C(C)C (stereo not given)
inactive: [18] 34.7 µM | [1] 34.3 µM | [2] 31.2 µM | [3] 46.1 µM | [19] 71.6 µM | [20] 29.4 µM | [5] 18.7 µM | [6] 39.6 µM | [7] 26.9 µM | [9] 22.7 µM | [10] > 100 µM | [11] 29.8 µM | [12] 31.7 µM | [13] 69 µM | [14] > 100 µM | [15] 60.8 µM | [16] 55.8 µM | [17] 47.4 µM

CN1CC(c2ccccc2)=CC2=C1C=CC(=N)/C2=N\N
inactive: [1] > 100 µM | [2] 52.2 µM | [3] > 100 µM | [20] > 100 µM | [4] > 100 µM | [5] > 100 µM | [6] 42.3 µM | [7] > 100 µM | [8] > 100 µM | [9] > 100 µM | [10] > 100 µM | [11] > 100 µM | [13] > 100 µM | [14] > 100 µM | [15] > 100 µM | [16] > 100 µM | [17] > 100 µM

O=c1[nH]cnc2cccc(Cl)c12
inactive: [18] > 100 µM | [1] > 100 µM | [2] > 100 µM | [3] > 100 µM | [5] > 100 µM | [6] > 100 µM | [7] > 100 µM | [8] > 100 µM | [9] > 100 µM | [10] > 100 µM | [11] > 100 µM | [12] > 100 µM | [13] > 100 µM | [14] > 100 µM | [15] > 100 µM | [16] > 100 µM | [17] > 100 µM

Cc1cccc(NC2=NCCO2)c1Cl
inactive: [18] > 100 µM | [1] > 100 µM | [3] > 100 µM | [19] 32.7 µM | [4] > 100 µM | [5] > 100 µM | [6] > 100 µM | [7] > 100 µM | [10] > 100 µM | [12] > 100 µM | [13] > 100 µM | [14] > 100 µM | [15] > 100 µM | [16] > 100 µM | [17] > 100 µM

NC(=O)c1ncn(C2C=CC(CP(=O)(O)O)C2)c1N (stereo not given)
inactive: [1] > 100 µM | [3] > 100 µM | [19] > 100 µM | [20] > 100 µM | [4] > 100 µM | [5] > 100 µM | [6] > 100 µM | [7] > 100 µM | [9] > 100 µM | [10] > 100 µM | [11] > 100 µM | [12] > 100 µM | [13] > 100 µM | [14] > 100 µM | [15] > 100 µM | [16] > 100 µM | [17] > 100 µM

COc1cc(Oc2c(C)c(Cl)c(OC)c(Cl)c2OC)c2c(c1Cl)COC2=O
inactive: [18] 49.7 µM | [1] 34.4 µM | [2] 43.6 µM | [3] 22.3 µM | [19] 54 µM | [20] 17 µM | [4] 31.3 µM | [5] 10 µM | [6] 15.2 µM | [7] 18.6 µM | [8] 11.5 µM | [10] 47.1 µM | [12] 35.6 µM | [13] 62.2 µM | [14] 41.5 µM | [15] 52 µM | [16] 71.3 µM | [17] 31.9 µM

C/C1=C\[C@H](C)C[C@H](C)OC(=O)C[C@H](c2ccc(O)cc2)NC(=O)[C@H](Cc2ccc(O)c(Br)c2)N(C)C(=O)[C@H](C)NC(=O)[C@@H](C)C1
inactive: [18] > 25 µM | [1] > 25 µM | [3] > 25 µM | [19] > 25 µM | [20] > 25 µM | [4] > 25 µM | [5] > 25 µM | [6] > 25 µM | [7] > 25 µM | [8] > 25 µM | [9] > 25 µM | [10] > 25 µM | [11] > 25 µM | [13] > 25 µM | [14] > 25 µM | [15] > 25 µM | [16] > 25 µM
